Assay results taken from patent US9717820B2, “Procoagulant peptides and their derivatives and uses therefor” (Ethicon, Inc., priority 2011, dated 2017).
No end group written: not given here. mPEG 5000 = methoxy-PEG, average 5000 Da, coupled via mPEG-NHS

What was measured:
[1] = system: porcine spleen biopsy punch model; test: porcine spleen biopsy punch model, time to hemostasis; format: in vivo; details: for hemostatic performance vs Surgiflo with normal saline: ORC powder scaffold, FIG. 5, N=4; for time to hemostasis vs Surgiflo with saline and with PEG2000 (5 mM): FIG. 3, N=3; for hemostatic efficacy vs Surgiflo with thrombin: 0.05-5 mM; for hemostatic efficacy (time to hemostasis): pegylated (PEG2000) 8 amino acid peptides in mixture with Surgiflo, FIG. 5; for time to hemostasis vs thrombin: FIG. 2, N=3
Experimental: The data was collected using in vivo porcine spleen biopsy punch model [6 mm wide×3 mm deep], initial tamponade time: 30 s; observation time: 30 s; N=3.
In vivo hemostatic activity study was performed using the porcine spleen biopsy punch model, with the punched wound opening 6 mm wide×3 mm deep made on the spleen and the test article applied to a freshly created wound site followed by an occlusive digital pressure (tamponade). Pressure was initially applied for 30 second and was timed using an electronic timer. Following the 30 seconds tamponade, digital pressure was discontinued; the gauze pad on the article was immediately removed. A 30-second hemostasis evaluation period was performed. If free flow bleeding was not observed within 30 seconds, the time to hemostasis was noted, in a minutes seconds format, and testing was concluded for that article. If free flow bleeding was observed, pressure and gauze were reapplied for additional 30 seconds tamponade and observation periods until hemostasis was achieved or until the testing period reached ten minutes. Hemostasis was determined by the cessation of free flow bleeding in less than ten minutes. Gauze pad was used as a negative control.
The data was collected using porcine spleen biopsy punch model [6 mm wide×3 mm deep], initial tamponade time: 30 s; observation time: 30 s; N=3.
The data was collected using porcine spleen biopsy punch model [6 mm wide×3 mm […]], initial tamponade time: 30 s; observation time: 30 s; N=3.
The inventors have tested the following ORC-based compositions: • mixtures of ORC with pegylated SEQ ID NO: 1 at 5 mM concentration (designated on the chart as ORC/PEG2000-RK-8) • mixtures of ORC with SEQ ID NO: 1 at 5 mM concentration (designated on the chart as ORC/RK-8) • mixtures of ORC with normal saline The data was collected using porcine spleen biopsy punch model [6 mm wide×3 mm […]], initial tamponade time: 30 s; observation time: 30 s; N=4.
The data was collected using porcine spleen biopsy punch model [6 mm wide×3 mm deep], initial tamponade time: 30 s; observation time: 30 s.

[2] = system: Heparinized Porcine spleen biopsy punch model; test: Heparinized porcine spleen biopsy punch model, time to hemostasis; format: in vivo; details: mixture with Surgiflo; for hemostatic effect in heparinized blood: 2 mL of 5 mM in saline (thrombin: EVITHROM), ACT above 300 seconds
From the text: The model was Heparinized Porcine spleen biopsy punch model: 6 mm wide×3 mm deep, tamponade time: 30 sec; observation time: 30 sec; activated clotting time (ACT) was maintained above 300 seconds by infusing additional 2000 IU heparin solution if needed. 9975 IU of heparin solution was initially applied to a 39.1 Kg porcine.

[3] = system: porcine blood containing sodium citrate; test: bench top test: solution added to citrated porcine blood in glass vials; details: 100 μL of 0.5 mM solution added to 100 μL citrated porcine blood; for precipitation of blood: after 2 hrs
Experimental: In a bench top experiment, pegylated SEQ ID NO: 1 in normal saline solution, non-pegylated SEQ ID NO: 1 in normal saline solution, and control solution of normal saline were tested to evaluate interaction with blood. Samples were prepared by adding 100 μL of pegylated SEQ ID NO: 1 in normal saline solution (0.5 mM), SEQ ID NO: 1 in normal saline solution (0.5 mM), and normal saline to separate glass vials containing 100 μL of porcine blood containing sodium citrate (0.105M). […] Thus the pegylated SEQ ID NO: 1 and non-pegylated SEQ ID NO: 1 was shown as promoting rapid blood coagulation.

[4] = system: washed human platelets; details: washed human platelets from different donors; cited from earlier work
[5] = system: fresh porcine blood; test: bench top test: treated Monocryl pad with fresh porcine blood; details: 100 μL of 0.5 mM on 0.025 g Monocryl pad, 150 μL fresh porcine blood, 2 minutes, room temperature
Experimental: In a bench top experiment, a synthetic porous pad was treated with pegylated SEQ ID NO: 1 in saline solution or with control solution of saline to evaluate interaction with blood. Samples were prepared by adding 100 μL of pegylated SEQ ID NO: 1 in normal saline solution (0.5 mM) or 200 μL of normal saline solution to 0.025 g Monocryl (poliglecaprone 25) pad. The impregnated Monocryl* (poliglecaprone 25) pads were then air-dried for 2 hrs following by an 1-hr vacuum drying process.
150 μL of fresh porcine blood was then added to each pad separately, and allowed it sit at room temperature for 2 minutes. The pads were then transferred to a Petri dish containing 20 mL of saline solution, observing non-coagulated blood diffusing out from the pads. […] Thus the pegylated SEQ ID NO: 1 was shown as promoting rapid blood coagulation.

[6] = system: clopidogrel and acetylsalicylic acid treated porcine spleen biopsy punch model; test: clopidogrel and acetylsalicylic acid treated porcine spleen biopsy punch model (platelet inactivated); format: in vivo; details: mixture with Surgiflo, 0.5 mM PEG2000-RK8 in saline, FIG. 8
Experimental: The data was collected using a clopidogrel and acetylsalicylic acid treated porcine spleen biopsy punch model (6 mm wide×3 mm deep, tamponade time: 30 sec; observation time: 30 sec; the following oral dosages were applied to a 4-month-old female porcine (weight: 66.1 Kg): • 2 days prior to the lab: 300 mg of Plavix and 325 mg of aspirin. • 1 day prior to the lab: 75 mg of Plavix and 325 mg of aspirin. • The day for the lab: 75 mg of Plavix and 325 mg of aspirin before the surgery.

[7] = mixture with Surgiflo, 5 mM, FIG. 6
[8] = mixture with Surgiflo, FIG. 4, N=3

Substance | hemostatic performance vs Surgiflo with normal saline ([1]; 5 mM) | time to hemostasis vs Surgiflo with saline and with PEG2000 (5 mM) ([1]; mixture with Surgiflo, 5 mM) | effectiveness as hemostatic agent (time to hemostasis) [1, 7] | hemostatic efficacy vs Surgiflo with thrombin [1, 8] | hemostatic effect in heparinized blood ([2]; FIG. 7) | clouding of blood [3] | precipitation of blood [3] | hemostatic efficacy (time to hemostasis) ([1]; 5 mM) | further results
Arg-Phe-Tyr-Val-Val-Met-Trp-Lys (RFYVVMWK) [SEQ ID NO: 1] | not suitable | much faster time to hemostasis | performed as well as thrombin | hemostatic efficacy comparable to mixtures of Surgiflo™ with thrombin | failed as hemostat in heparinized blood | instantly observed | complete precipitation of blood |  | concentrations that induce activation and aggregation of platelets [4]: 5 to 25 mM
PEG5000-SEQ ID NO: 1: SEQ ID NO: 1 with mPEG 5000 conjugated onto the N-terminus via mPEG-NHS ({mPEG 5000}-RFYVVMWK) |  |  |  |  | significant hemostatic efficacy |  |  |  | hemostatic efficacy vs thrombin, non-pegylated SEQ ID NO: 1 and other controls ([2]; heparinized blood, 5 mM): superior hemostatic efficacy
SEQ ID NO: 7: PEG2000-conjugated peptide KYFLLQFR (Lys-Tyr-Phe-Leu-Leu-Gln-Phe-Arg) (PEG2000-KYFLLQFR) |  |  |  |  |  |  |  | somewhat longer time to hemostasis, comparable to non-pegylated SEQ ID NO: 1 | 
SEQ ID NO: 21: PEG2000-conjugated random sequence 8 amino acid peptide KVYRWFMV (PEG2000-KVYRWFMV) [reference compound] |  |  |  |  |  |  |  | longer time to hemostasis, comparable to SF/saline mixture | 
pegylated SEQ ID NO: 1: SEQ ID NO: 1 with mPEG (average 2000 Da) conjugated onto the N-terminus via mPEG-NHS ({mPEG 2000 Da}-RFYVVMWK) | not suitable | much faster time to hemostasis | performed as well as thrombin | better or similar hemostatic efficacy | some hemostatic effect | instantly observed | complete precipitation of blood |  | hemostatic testing ([1]; Pluronic acid F127 scaffold, 5 mM, FIG. 6): failed in hemostatic testing; time to hemostasis vs thrombin ([1]; mixture with Surgiflo, 0.05 mM to 5 mM): comparable to thrombin; time to hemostasis ([1]; mixture with Surgiflo, 0.05 mM, FIG. 4, N=3): particularly fast time to hemostasis; time to hemostasis vs thrombin ([1]; mixture with Surgiflo, 0.1 mM): possibly better time to hemostasis than Thrombin; hemostatic efficacy vs SEQ ID NO: 1 and Thrombin ([1]; mixtures with Surgiflo, FIG. 4, further analysis): better hemostatic efficacy than SEQ ID NO: 1 and Thrombin; coagulated blood trapped in treated pad [5]: significant amount of coagulated blood; time to hemostasis ([2]; 2 mL of 5 mM in saline, heparinized blood, FIG. 7): 6.8 min; hemostatic efficacy vs Surgiflo/Thrombin [6]: working as well as Surgiflo/Thrombin
thrombin |  |  |  |  | failed as hemostat in heparinized blood |  |  |  | 
